Reference: ChEMBL document CHEMBL1157532, “Halichonadin F and the Cu(I) complex of halichonadin C from the sponge Halichondria sp” (2008)
Values after ≈ are worked out from the molar mass of the structure shown.

How the values were obtained:
Assay type in all cases: functional
Micrococcus luteus = assay: Antimicrobial activity against Micrococcus luteus
[1] = test system: Trichophyton mentagrophytes; assay: Antimicrobial activity against Trichophyton mentagrophytes
Cryptococcus neoformans = assay: Antimicrobial activity against Cryptococcus neoformans

MIC (Micrococcus luteus): 4 µg/mL (≈ 18.1 µM)
MIC [1]: 16 µg/mL (≈ 72.3 µM)
MIC (Cryptococcus neoformans): 16 µg/mL (≈ 72.3 µM)
SMILES: C[C@@H]1CC[C@@H]2[C@@H]1[C@H]1[C@@H](CC[C@]2(C)N)C1(C)C [HALICHONADIN F]
